Source: patent USRE34918E, “Azaazulene compounds which are useful as antiallergic and antiinflammatory agents” (Kaken Pharmaceutical Co., Ltd., priority 1988, dated 1995)
Values after ≈ are worked out from the molar mass of the structure shown.

Experiments:
[1] = test system: PCA (homologous passive cutaneous anaphylaxis) in rat; experiment: Inhibitory activity against PCA in rat; format: in vivo, rat (male Slc: Wistar); details: 5 mg/kg oral, 1 hour before antigen challenge; for inhibition in vivo at 5 mg/kg: Rattus norvegicus, read-out: Inhibition rate against PCA
Experimental: An anti-dinitrophenylated-ovalbumin (hereinafter referred to as "anti-DNP-OVA") rat antiserum having 800 of PCA titer in homologous passive cutaneous anaphylaxis reaction in rats for 48 hours, was diluted 200 times with physiological saline, and diluted antiserum was injected intradermally into back of groups of 5 male Slc: Wistar rats weighing 130-150 g in a volume of 50 μl/site to be passively sensitized. After 48 hours, 0.6 ml of 1% (w/v) Evans blue solution containing 1.5 mg of antigen DNP-OVA was administered intravenously into the tail. Thirty minutes later, the rats were bled to death and skin of the rats was removed. According to the method of Katayama et al [Microbiol. […] The test compound was suspended in 0.5% (w/v) aqueous solution of carboxymethylcellulose (hereinafter referred to as "CMC"), the suspension was administered orally in a ratio of 5 mg/kg 1 hour before challenging an antigen.
Inhibition rate against PCA was calculated according to the following equation. [formula] M: Amount of leaked pigment in antibody-sensitized site under administration of CMC without the test compound
S: Amount of leaked pigment in antibody-sensitized site under administration of the test compound in CMC
B: Amount of leaked pigment in antibody-nonsensitized site

[2] = test system: histamine release from rat mast cell; experiment: Inhibitory activity against histamine release from rat mast cell; format: cell-based; details: 10 μg/ml, read-out: Inhibitory rate against histamine release
Experimental: An anti-dinitrophenylated-ovalbumin (anti DNP-OVA) rat antiserum having 800 of PCA titer in homologous passive cutaneous anaphylaxis reaction in rats for 48 hours was diluted double with physiological saline, and 1 ml of diluted antiserum was injected intraperitoneally into rats to be passively sensitized. On the next day, peritoneal exudation cell (hereinafter referred to as "PEC") was collected. The collected PEC was washed with a medium containing 0.1% BSA, and 1.5×10^5 of the PEC were added to each test tube. AFter incubation at 37° C. for 10 minutes, 50 μl of test compound solution in a same medium was added thereto. After 30 seconds, 50 μl of antigen solution (DVA-OVA 100 μg/ml) was further added thereto to give the total amount of 500 μl of the reaction mixture, and histamine release reaction was induced. After 10 minutes, 1 ml of physiological saline with cooled Tris buffered solution containing 1 mM EDTA were added thereto to stop the reaction. After centrifugation, the amount of histamine in supernatant was determined by fluorescence method according to the method of Shore et al [cf. J. Pharmacol. Exp. Ther., 127, 182 (1959)]. Inhibition rate against histamine release was calculated according to the following equation.
Inhibition rate against histamine release [formula] M: Amount of histamine in supernatant under addition of antigen and non-addition of test compound
S: Amount of histamine in supernatant under addition of antigen and test compound
B: Amount of histamine in supernatant under non-addition of antigen and test compound.
The test compound was used in a concentration of 10 μg/ml.

[3] = biological target: T1, 5-lipoxygenase (Cavia porcellus, UniProt A0A286X958); experiment: 5-lipoxygenase inhibiting activity in guinea pig; format: biochemical; details: read-out: Inhibition rate against 5-lipoxygenase activity
T1 construct: 5-lipoxygenase was prepared with polymorphonuclear leukocyte obtained from peritoneal cavity; endogenous in cells; host or cells: guinea pig peritoneal polymorphonuclear leukocytes (casein-elicited)
T1 sequence (A0A286X958 1-674): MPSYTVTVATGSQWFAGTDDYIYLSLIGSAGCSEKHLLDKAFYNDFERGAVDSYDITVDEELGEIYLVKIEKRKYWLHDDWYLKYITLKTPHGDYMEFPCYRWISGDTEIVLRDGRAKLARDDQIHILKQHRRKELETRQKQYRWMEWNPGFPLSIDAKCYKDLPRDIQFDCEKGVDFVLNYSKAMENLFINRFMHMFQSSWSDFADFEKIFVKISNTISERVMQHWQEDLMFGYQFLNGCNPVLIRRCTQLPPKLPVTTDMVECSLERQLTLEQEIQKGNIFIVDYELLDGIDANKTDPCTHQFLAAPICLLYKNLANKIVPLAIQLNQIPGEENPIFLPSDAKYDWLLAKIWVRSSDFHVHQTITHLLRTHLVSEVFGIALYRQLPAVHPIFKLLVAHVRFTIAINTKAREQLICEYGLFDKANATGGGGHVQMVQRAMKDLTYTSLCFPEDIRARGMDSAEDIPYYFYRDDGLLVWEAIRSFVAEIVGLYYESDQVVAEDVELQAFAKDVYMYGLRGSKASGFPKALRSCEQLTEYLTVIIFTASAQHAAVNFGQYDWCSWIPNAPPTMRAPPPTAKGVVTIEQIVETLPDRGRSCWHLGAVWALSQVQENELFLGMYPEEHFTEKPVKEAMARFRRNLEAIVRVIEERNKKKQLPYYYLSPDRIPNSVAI
Experimental: The test was carried out according to the method of Ochi [cf. J. Biol. Chem., 258, 5754-5758 (1983)]. Two % casein solution in saline was injected intraperitoneally into guinea pigs in an amount of 1/10 of body weight. After 16 hours, 5-lipoxygenase was prepared with polymorphonuclear leukocyte obtained from peritoneal cavity. Test compound and 5-lipoxygenase were pre-incubated at 30° C. for 10 minutes, CaCl2 (calcium chloride) and ^14 C-arachidonic acid were added thereto, and the resulting mixture was incubated for 20 minutes. A mixture of ethyl acetate/methanol/0.2M citric acid=30/4/1 (by volume) was added thereto to stop the reaction. After centrifugation, the organic solvent layer was spotted on a plate for thin layer chromatography and developed. Effect of the test compound was determined from the amount of ^14 C-5-hydroxyeicosatetraenoic acid (hereinafter referred to as "5-HETE") formed from ^14 C-arachidonic acid. Radioactivity of 5-HETE position was measured with a liquid scintillation counter.
Inhibition rate against 5-lipoxygenase activity was calculated according to the following equation.
Inhibition rate against 5-lipoxygenase activity [formula] A: Value of radioactivity in the control group B: Value of radioactivity in the test compound group
Each test compound was used in a concentration of 10 μM.

[4] = test system: smooth musculus trachealis; experiment: Relaxant activity of smooth musculus trachealis in guinea pig; design: species or system guinea pig (male Hartley); details: Cavia porcellus; tracheal chain strips, 37° C.; read-out: Concentration for 50% relaxation
Experimental: Male Hartley guinea pigs weighing 350 to 550 g were bleed to death, and immediately the tracheae were extirpated. According to the method of Takagi et al [cf. Chem. Pharm. Bull., 8, 716 (1958)], tracheal chain strips was prepared, and the sample was suspended on Magnus apparatus under addition of load of 0.5 g. The test was carried out at 37° C. of liquid temperature. After position of tonus was examined with histamine (10^-6 g/ml) and isoproterenol (10^-7 g/ml), the test compound dissolved in a mixture of dimethyl sulfoxide and physiological saline was added thereto, and the test compound was investigated with respect to the effect on smooth musculus trachealis. Theophylline was used as a positive comparative drug. The relaxation and the contraction of smooth musculus trachealis were recorded on servocorder (SR 6342: commercially available from Watanabe Instruments Corp.) by connecting Isotonic Transducer (TD-1125: commercially available from Nihon Kohden Kogyo Co., Ltd.) to a balancing box.

Compound | inhibition in vivo at 5 mg/kg [1] [%] | inhibition at 10 µg/mL [2] [%] | inhibition at 10 µM [3] [%] | Inhibition rate against PCA [1] [%] | EC50 [4] [µg/mL]
N#Cc1c2cccccc-2nc1NCC(=O)O [Example 62, 3-Cyano-2-carboxymethylamino-1-azaazulene] | 14 ± 4.3 | 82.5 | 5.2 | – | –
5(3-Butyloxyallylaminophenyl)-1H-tetrazole [WP-833, reference compound] | – | – | – | 42.8 ± 5.1 | –
CCCCn1c2cc(C(C)C)cccc-2c(-c2nnn[nH]2)c1=O [Example 18] | – | 86.9 | – | – | 28 (≈ 89.9 µM)
Cn1c(=O)c2[nH]cnc2n(C)c1=O [theophylline, reference compound] | – | – | – | – | 6.8 (≈ 37.7 µM)
CCCCn1c2cccccc-2c(-c2nnn[nH]2)c1=O [Example 17] | -1.9 ± 9.2 | 89.5 | – | – | –
CC(C)c1cccc2n(CCCCCc3ccccc3)c(=O)c(-c3nnn[nH]3)c-2c1 [Example 6, 5-Iso-propyl-1-(5-phenylpentyl)-3-(5-tetrazolyl)-1-azaazulane-2-one] | – | 6.3 | 27 | – | 13.1 (≈ 32.6 µM)
N#Cc1c2cccccc-2nc1N=[N+]=[N-] [Example 60, 2-Azido-3-cyano-1-azaazulene] | -27 ± 17.7 | 65.3 | – | – | 52 (≈ 266 µM)
CC(C)c1cccc2[nH]c(=O)c(-c3nnn[nH]3)c-2c1 [Example 1, 5-Iso-propyl-3-(5-tetrazolyl)-1-azaazulane-2-one] | – | 78.6 | – | – | 47 (≈ 184 µM)
CC(C)c1cccc2n(Cc3ccccn3)c(=O)c(-c3nnn[nH]3)c-2c1 [Example 13, 5-Iso-propyl-1-(2-pyridylmethyl)-3-(5-tetrazolyl)-1-azaazulane-2-one] | – | 91.5 | -9.4 | – | 12.4 (≈ 35.8 µM)
O=c1c(-c2nnn[nH]2)c2cccccc-2n1Cc1ccccc1 [Example 3, 1-Benzyl-3-(5-tetrazolyl)-1-azaazulane-2-one] | 98.6 ± 3.5 | 84.9 | 63.2 | – | –
CC(C)c1cccc2n(CCCc3ccccc3)c(=O)c(-c3nn[nH]n3)c-2c1 [Example 30] | 10.8 ± 11.1 | 99.5 | 12.2 | – | 7.8 (≈ 20.9 µM)
CC(C)(C)c1cc(C(=O)Cn2c3cccccc-3c(-c3nn[nH]n3)c2=O)cc(C(C)(C)C)c1O [Example 48] | – | 10.4 | -1.1 | – | –
CCCCn1c2cccc(C(C)C)cc-2c(-c2nnn[nH]2)c1=O [Example 19] | – | 83.4 | – | – | 44 (≈ 141 µM)
CC(C)c1cccc2c(-c3nnn[nH]3)c(=O)n(C)c-2c1 [Example 16] | – | 88.3 | – | – | 43 (≈ 160 µM)
O=c1c(-c2nn[nH]n2)c2cccccc-2n1CSc1ccccc1 [Example 44] | – | 85 | 18.3 | – | –
CC(C)c1cccc2c(-c3nnn[nH]3)c(=O)n(CCCCCc3ccccc3)c-2c1 [Example 7, 7-Iso-propyl-1-(5-phenylpentyl)-3-(5-tetrazolyl)-1-azaazulane-2-one] | – | 10.6 | 60.6 | – | –
CCCc1c(OCCCn2c3cccccc-3c(-c3nn[nH]n3)c2=O)ccc(C(C)=O)c1O [Example 49] | – | 62.8 | -2.6 | – | 42.3 (≈ 94.5 µM)
O=C(O)c1ccc(Cn2c3cccccc-3c(-c3nn[nH]n3)c2=O)cc1 [Example 38] | – | 24.4 | 31.7 | – | –
O=c1c(-c2nn[nH]n2)c2cccccc-2n1CCc1ccc(O)c(O)c1 [Example 46] | – | 57.6 | 41.8 | – | –
Cc1ccc2c([nH]c(=O)c3c(=O)cc(C(=O)OCCC(C)C)oc32)c1C [repirinast, Isopentyl 5,6dihydro-7,8-dimethyl-4,5-dioxo-4Hpyrano[3,2c]quinoline2-carboxylate, reference compound] | 36.2 ± 5.8 | – | – | – | –
CC(C)c1cccc2c(-c3nnn[nH]3)c(=O)[nH]c-2c1 [Example 2, 7-Iso-propyl-3-(5-tetrazolyl)-1-azaazulane-2-one] | – | 81.4 | – | – | 25 (≈ 97.9 µM)
